Test results: patent publication US20090264291A1, “COMPOSITIONS COMPRISING ANTI-PROLIFERATIVE AGENTS AND USE THEREOF” (priority 1998, published 2009)
“And” between values parts separate entries of the source, which are not always exact repeats. Equal entries are not always repeated.

Tested on: cells
Assay: Cytotoxicity by agarose diffusion test
Format: cell-based
Experimental: Cytotoxicity was assessed by an agarose diffusion test, in which the test material is applied to the surface of agarose gel, wherein the agarose gel is in contact with cells. Cytotoxic test material causes cell lysis. Live cells incorporate MTT and transform it to formazan as described herein above; cytotoxicity potential is given according to the mean area of non-stained cells, i.e., lysed cells, by the following scale:
Two independent tests were performed in duplicate (total of 4 Petri dishes). Cultured cell were trypsinized and counted. 2×10^6 cells in 4 ml of DMEM medium were seeded in each 50 mm diameter Petri dish. The dishes were incubated for 24 h+1 h at 37° C., 5% CO2, before they were covered with 4% agarose gel, prepared with complete DMEM medium. The test compound (tomato derived extract) was applied on top of a 6 mm disc of filter paper that was placed in the center of the agarose gel surface.
After 23 h-25 h of contact at 37° C. and 5% CO2 the filter paper with the test compound and the agarose gel were gently removed. The cells were rinsed carefully with PBS by a pipette. The liquid was then removed, and 2 ml solution of MTT at 0.5 mg/ml, prepared extemporaneously from a source solution of 5 mg/ml, was added to each dish. The dishes were then incubated for 0.5-1.5 h at 37° C. and 5% CO2. After removal of the excess dye, living cells were colored while lysed cells appeared as an uncolored zone. Each dish was placed on a light surface and the largest and the smallest diameters of the lysis area, estimated visually, were measured by a measuring ruler (mm) on a graph paper, and the mean diameter was calculated.
The value of the diameter of cell lysis taken into account for the determination of cytotoxicity corresponded to the arithmetical mean of the mean diameter defined for the 2 dishes of each test (MD). Pure complete DMEM served as a negative control (no lysis should occur). 3% SDS served as a positive control (cells are lysed due to the presence of SDS).

[1] = dishes 1-4, 23 h-25 h of contact

Structure (SMILES): CCCCCCCCCCCCOS(=O)(=O)[O-].[Na+] [3% SDS, SDS]
- MD (mean of the mean diameter for the 2 dishes of each test) (dishes 1 + 2 and 3 + 4): 2.6 cm
- Mean (diameter of lysis) (dishes 1-4): 2.6 cm and 2.5 cm
- Largest diameter (of the lysis area) [1]: 2.5 cm and 2.6 cm
- Smallest diameter (of the lysis area) [1]: 2.4 cm and 2.5 cm
